Measured values published in patent publication US20200197480A1, “COMBINATION COMPRISING A PARTICULAR POLYMYXIN” (HELPERBY THERAPEUTICS LIMITED, priority 2017, published 2020).

Key:
[1] = test system: NDM-1 Escherichia coli (BAA2469); experiment: chequerboard analysis, log phase culture, 24 hours incubation, FICI calculated; type: cell-based; set-up: key: FICI; ≤0.5 synergy, 0.5–4.0 no interaction, ≥4.0 antagonism
Protocol: (§1) Log phase bacterial culture was incubated with HT0160010 and CMS in combination using the chequerboard method known in the art. The overnight culture was diluted with nutrient broth (Oxoid) to 10^7 CFU/ml and 280 μl of the culture was added to each well to make a final concentration of 300 μl. Incubation of the compounds with the bacterial suspension was carried out for 24 hours. The HT0160010 concentration ranged from 128 to 0 μg/ml and the CMS concentration ranged from 16 to 0 μg/ml.
(§2) The effects of the combination were examined by calculating the fractional inhibitory concentration index (FICI) of each combination, as follows: (MIC of drug A, tested in combination)/(MIC of drug A, tested alone)+(MIC of drug B, tested in combination)/(MIC of drug B, tested alone). The interaction of the combination was defined as showing synergy if the FICI was ≤0.5, no interaction if the FICI was ≥0.5 but ≤4.0 and antagonism if the FICI was ≥4.0.
• Bacterial strain used: BAA2469 strain of NDM-1 E. coli from ATCC®. • Growth of bacteria: Log phase growth of the bacteria was carried out according to methods known in the art.
Compounds and preparation were the same as Example 1. The effects of the combination were also examined by calculating the FICI in the same manner as Example 1.
as §1, with “with HT0160009” for “with HT0160010”, “from 256” for “from 128”
Compounds and preparation were the same as Example 3. The effects of the combination were also examined by calculating the FICI in the same manner as Example 3.

[2] = test system: NDM-1 Klebsiella pneumoniae subsp. pneumoniae (BAA2472); experiment: as above; type: cell-based
Protocol: • Bacterial strain used: BAA2472 strain of NDM-1 Klebsiella pneumoniae subsp. pneumoniae from ATCC®. • Growth of bacteria: Log phase growth of the bacteria was carried out according to methods known in the art. • Compounds and preparation: • (i) HT0160010 was obtained from a commercial source and dissolved in DMSO to make a stock concentration of 10 mg/ml. • (ii) Colistimethate sodium (CMS) was obtained from a commercial source (e.g. Sigma Aldrich) at a concentration of 10 mg/ml.
as §1, §2
• Bacterial strain used: BAA2472 strain of NDM-1 Klebsiella pneumoniae subsp. pneumoniae from ATCC®. • Growth of bacteria: Log phase growth of the bacteria was carried out according to methods known in the art.
• (i) HT0160009 was obtained from a commercial source and dissolved in DMSO to make a stock concentration of 10 mg/ml. • (ii) Colistimethate sodium (CMS) was obtained from a commercial source (e.g. Sigma Aldrich) at a concentration of 10 mg/ml.
as §1, with “with HT0160009” for “with HT0160010”, “from 256” for “from 128”
The effects of the combination were examined by calculating the FICI in the same manner as Example 1.

[3] = CMS 0.015625 μg/ml, HT0160010 0

**Q.** `OC(c1ccccn1)c1cc(C(F)(F)F)nc2c(C(F)(F)F)cccc12` (stereo not shown) [HT0160010, (2,8-bis-trifluoromethyl-quinolin-4-yl)-pyridin-2-yl-methanol] was tested. Which chequerboard results ([1]; HT0160010 4 μg/ml, CMS 0) did it give?
**A.** 0.62

**Q.** What about the chequerboard results ([1]; HT0160010 8 μg/ml, CMS 0) of the same compound?
**A.** 0.58

**Q.** And the chequerboard results ([1]; HT0160010 16 μg/ml, CMS 0)?
**A.** 0.61

**Q.** And the chequerboard results ([1]; HT0160010 32 μg/ml, CMS 0)?
**A.** 0.62

**Q.** And the chequerboard results ([1]; HT0160010 64 μg/ml, CMS 0)?
**A.** 0.64

**Q.** What about the chequerboard results ([1]; HT0160010 128 μg/ml, CMS 0) of the same compound?
**A.** 0.61

**Q.** What about the chequerboard results ([2]; HT0160010 4 μg/ml, CMS 0) of the same compound?
**A.** 0.54

**Q.** And the chequerboard results ([2]; HT0160010 8 μg/ml, CMS 0)?
**A.** 0.57

**Q.** What about the chequerboard results ([2]; HT0160010 16 μg/ml, CMS 0) of the same compound?
**A.** 0.56

**Q.** And the chequerboard results ([2]; HT0160010 32 μg/ml, CMS 0)?
**A.** 0.56

**Q.** What about the chequerboard results ([2]; HT0160010 64 μg/ml, CMS 0) of the same compound?
**A.** 0.56

**Q.** And the chequerboard results ([2]; HT0160010 128 μg/ml, CMS 0)?
**A.** 0.57

**Q.** Colistimethate sodium [CMS] was tested. Which chequerboard results [1, 3] did it give?
**A.** 0.59

**Q.** And the chequerboard results ([1]; CMS 0.016 μg/ml, HT0160009 0)?
**A.** 0.62

**Q.** What about the chequerboard results ([1]; CMS 0.031 μg/ml, HT0160009 0) of the same compound?
**A.** 0.64

**Q.** And the chequerboard results ([1]; CMS 0.03125 μg/ml, HT0160010 0)?
**A.** 0.68

**Q.** What about the chequerboard results ([1]; CMS 0.0625 μg/ml, HT0160010 0) of the same compound?
**A.** 0.61

**Q.** And the chequerboard results ([1]; CMS 0.063 μg/ml, HT0160009 0)?
**A.** 0.66

**Q.** And the chequerboard results ([1]; CMS 0.125 μg/ml, HT0160009 0)?
**A.** 0.63

**Q.** And the chequerboard results ([1]; CMS 0.125 μg/ml, HT0160010 0)?
**A.** 0.59

**Q.** And the chequerboard results ([1]; CMS 0.25 μg/ml, HT0160009 0)?
**A.** 0.62

**Q.** What about the chequerboard results ([1]; CMS 0.25 μg/ml, HT0160010 0) of the same compound?
**A.** 0.61

**Q.** What about the chequerboard results ([1]; CMS 0.5 μg/ml, HT0160009 0) of the same compound?
**A.** 0.62

**Q.** And the chequerboard results ([1]; CMS 0.5 μg/ml, HT0160010 0)?
**A.** 0.59

**Q.** What about the chequerboard results ([1]; CMS 1 μg/ml, HT0160009 0) of the same compound?
**A.** 0.56

**Q.** What about the chequerboard results ([1]; CMS 1 μg/ml, HT0160010 0) of the same compound?
**A.** 0.55

**Q.** What about the chequerboard results ([1]; CMS 2 μg/ml, HT0160009 0) of the same compound?
**A.** 0.55

**Q.** And the chequerboard results ([1]; CMS 2 μg/ml, HT0160010 0)?
**A.** 0.54

**Q.** What about the chequerboard results ([1]; CMS 4 μg/ml, HT0160009 0) of the same compound?
**A.** 0.05

**Q.** What about the chequerboard results ([1]; CMS 4 μg/ml, HT0160010 0) of the same compound?
**A.** 0.18

**Q.** And the chequerboard results ([1]; CMS 8 μg/ml, HT0160009 0)?
**A.** 0.05

**Q.** And the chequerboard results ([1]; CMS 8 μg/ml, HT0160010 0)?
**A.** 0.05

**Q.** What about the chequerboard results ([1]; CMS 16 μg/ml, HT0160009 0) of the same compound?
**A.** 0.05

**Q.** What about the chequerboard results ([1]; CMS 16 μg/ml, HT0160010 0) of the same compound?
**A.** 0.05

**Q.** And the chequerboard results [2, 3]?
**A.** 0.54

**Q.** And the chequerboard results ([2]; CMS 0.016 μg/ml, HT0160009 0)?
**A.** 0.52

**Q.** What about the chequerboard results ([2]; CMS 0.031 μg/ml, HT0160009 0) of the same compound?
**A.** 0.52

**Q.** What about the chequerboard results ([2]; CMS 0.03125 μg/ml, HT0160010 0) of the same compound?
**A.** 0.53

**Q.** And the chequerboard results ([2]; CMS 0.0625 μg/ml, HT0160010 0)?
**A.** 0.54

**Q.** What about the chequerboard results ([2]; CMS 0.063 μg/ml, HT0160009 0) of the same compound?
**A.** 0.53

**Q.** What about the chequerboard results ([2]; CMS 0.125 μg/ml, HT0160009 0) of the same compound?
**A.** 0.53

**Q.** What about the chequerboard results ([2]; CMS 0.125 μg/ml, HT0160010 0) of the same compound?
**A.** 0.52

**Q.** What about the chequerboard results ([2]; CMS 0.25 μg/ml, HT0160009 0) of the same compound?
**A.** 0.53

**Q.** And the chequerboard results ([2]; CMS 0.25 μg/ml, HT0160010 0)?
**A.** 0.51

**Q.** And the chequerboard results ([2]; CMS 0.5 μg/ml, HT0160009 0)?
**A.** 0.53

**Q.** And the chequerboard results ([2]; CMS 0.5 μg/ml, HT0160010 0)?
**A.** 0.52

**Q.** And the chequerboard results ([2]; CMS 1 μg/ml, HT0160009 0)?
**A.** 0.50

**Q.** And the chequerboard results ([2]; CMS 1 μg/ml, HT0160010 0)?
**A.** 0.41

**Q.** What about the chequerboard results ([2]; CMS 2 μg/ml, HT0160009 0) of the same compound?
**A.** 0.04

**Q.** What about the chequerboard results ([2]; CMS 2 μg/ml, HT0160010 0) of the same compound?
**A.** 0.05

**Q.** What about the chequerboard results ([2]; CMS 4 μg/ml, HT0160009 0) of the same compound?
**A.** 0.04

**Q.** What about the chequerboard results ([2]; CMS 4 μg/ml, HT0160010 0) of the same compound?
**A.** 0.04

**Q.** What about the chequerboard results ([2]; CMS 8 μg/ml, HT0160009 0) of the same compound?
**A.** 0.04

**Q.** What about the chequerboard results ([2]; CMS 8 μg/ml, HT0160010 0) of the same compound?
**A.** 0.05

**Q.** What about the chequerboard results ([2]; CMS 16 μg/ml, HT0160009 0) of the same compound?
**A.** 0.04

**Q.** And the chequerboard results ([2]; CMS 16 μg/ml, HT0160010 0)?
**A.** 0.05

**Q.** Which chequerboard results ([1]; HT0160009 4 μg/ml, CMS 0) does the source give for `O=C(c1cc(C(F)(F)F)nc2c(C(F)(F)F)cccc12)C1CCCCN1` (stereo not shown) [HT0160009] here?
**A.** 0.61

**Q.** What about the chequerboard results ([1]; HT0160009 8 μg/ml, CMS 0) of the same compound?
**A.** 0.54

**Q.** And the chequerboard results ([1]; HT0160009 16 μg/ml, CMS 0)?
**A.** 0.58

**Q.** What about the chequerboard results ([1]; HT0160009 32 μg/ml, CMS 0) of the same compound?
**A.** 0.32

**Q.** What about the chequerboard results ([1]; HT0160009 64 μg/ml, CMS 0) of the same compound?
**A.** 0.22

**Q.** And the chequerboard results ([1]; HT0160009 128 μg/ml, CMS 0)?
**A.** 0.21

**Q.** And the chequerboard results ([1]; HT0160009 256 μg/ml, CMS 0)?
**A.** 0.05

**Q.** And the chequerboard results ([2]; HT0160009 4 μg/ml, CMS 0)?
**A.** 0.50

**Q.** What about the chequerboard results ([2]; HT0160009 8 μg/ml, CMS 0) of the same compound?
**A.** 0.50

**Q.** And the chequerboard results ([2]; HT0160009 16 μg/ml, CMS 0)?
**A.** 0.49

**Q.** And the chequerboard results ([2]; HT0160009 32 μg/ml, CMS 0)?
**A.** 0.25

**Q.** What about the chequerboard results ([2]; HT0160009 64 μg/ml, CMS 0) of the same compound?
**A.** 0.17

**Q.** What about the chequerboard results ([2]; HT0160009 128 μg/ml, CMS 0) of the same compound?
**A.** 0.14

**Q.** What about the chequerboard results ([2]; HT0160009 256 μg/ml, CMS 0) of the same compound?
**A.** 0.05
